Measured values reported in US11860161B2, “Detection and treatment of autoimmune disorders” (Seattle Children's Hospital, priority 2007, dated 2024).
“Also recorded” adds a separate entry of the source. Where a SMILES comes first, the peptide text is derived from it. The star is where a group is joined. Cbz = O=C(OCc1ccccc1)*; CH2F = FC*

Key:
[1] = tested on: Mo; conditions: in vitro, prior study; cited from earlier work
[2] = tested on: PD-L1 on APC; assay: PD-L1 surface expression on APC (Mo, mDC) of PBMC cultured with caspase inhibitors; type: cell-based, human
Method: (§1) In order to determine which caspase (or caspases) is responsible for downmodulation of PD-L1 during active lupus, the effects of specific caspase inhibitors on PD-L1 expression in human APC were tested (Table IV). Control and SLE PBMC were incubated for one day in the presence of the individual caspase inhibitors at doses ranging from 10 uM to 50 uM (R&D Systems), with the appropriate level of DMSO as the carrier control (0.5% final concentration). Treated cells were assayed for cell death and apoptosis using Annexin V and PI (example shown in FIG. 4), as well as stained for cell-surface expression of PD-L1 on APC.
(§2) PBMC were thawed, washed, and diluted to 1-2×10^6 cells/ml in culture medium consisting of RPMI 1640 with L-glutamine (CellGro), 10% heat-inactivated NB human serum (Valley Biomedical), 1% penicillin/streptomycin (CellGro), and 0.1% beta-mercaptoethanol. Cells were plated in round-bottom 96-well plates (Coming Costar) and incubated at 37° C. in a humidified cell chamber with 5% CO2. Some wells were treated with pan-/poly-caspase inhibitors at the time of plating: 50 uM Q- Val-Asp-(non-o-methylated)—OPh (OPH) or Z- Val-Ala-Asp-(beta-o-methyl)-fluroromethylketone (Z-VAD) (both from R&D Systems), or DMSO as the carrier control (0.5% final concentration).
(§3) At the timepoints indicated, cells were surface-stained using fluorochrome- or biotin-conjugated monoclonal antibodies: anti-CD1c, (Miltenyi), anti-CD3, anti-PD-L1 (eBioscience), anti-CD11b, anti-CD11c, anti-CD14, anti-CD-86, anti-PD-L2 (Pharmingen/BD Biosciences), anti-CD45RO, anti-CD80, anti-CD83, and/or anti-HLA-DR (BioLegend), with isotype-matched, fluorochrome/biotin-labeled irrelevant monoclonal antibodies as controls. All samples were blocked using 0.5% human serum and anti-FeR antibody (Miltenyi) during staining. Cells were fixed using 2% paraformaldehyde in PBS after preliminary experiments indicated no effect of cell fixation on expression levels of PD-L1 and other surface markers. To assess apoptosis, some cultures were stained in parallel with Annexin V and propidium iodide (PI) (both from Becton Dickinson) as per the manufacturer's instructions. Flow cytometry was performed using a FACSCalibur or LSR II cytometer (Becton Dickinson), and data were analyzed using FlowJo software (Macintosh Version 6.3).

[3] = tested on: APC surface markers CD80/86; assay: Other APC surface markers (CD80/86 etc.) with caspase inhibitors; type: cell-based, human; conditions: PBMC from healthy controls, SLE flare, SLE remission (FIG. 5B)
Method: as §2
as §3, with “Cells were fixed using 2% paraformaldehyde in PBS after preliminary experiments indicated no effect of cell fixation on expression levels of PD-L1 and other surface markers. To assess apoptosis, some cultures were stained in parallel with Annexin V and propidium iodide (PI) (both from Becton Dickinson) as per the manufacturer's instructions.” left out

[4] = tested on: T lymphocytes; assay: Foxp3 expression in T lymphocytes of PBMC cultures treated with OPH; type: cell-based, human; conditions: 50 uM; healthy control and SLE cultures; three days later
Method: PBMC were cultured as above and a duplicate well of each sample treated with 50 uM OPH. PD-L1 upregulation on APC was confirmed in these cultures, and an aliquot of each sample was incubated further in order to allow interaction of APC with autologous T cells in culture. Three days later, the cells were fixed and permeabilized, and the T lymphocytes were assayed for intracellular expression of the regulatory T cell protein, Foxp3.

[5] = tested on: PBMC; assay: PBMC cell death and apoptosis (Annexin V and PI) with caspase inhibitors; type: cell-based, human; conditions: 50 uM; control, SLE flare and SLE remission cultures; one day (FIG. 4B)
Method: as §1
The inhibitors enter living cells and bind irreversibly at the caspase active sites, preventing further proteolytic activity by the enzyme. After incubation with caspase inhibitors, PBMC were gated by forward and side scatter and analyzed for percent cell death and apoptosis using Annexin V and PI (see FIG. 10). […] However, higher doses of some caspase-specific inhibitors (50 uM), did alter PD-L1 levels, both in Mo and mDC (example shown in FIG. 11). Normal PBMC were incubated in medium with or without various caspase inhibitors, and PD-L1 protein levels assessed at day one. […]

[6] = tested on: PD-L2; assay: PD-L2 expression on APC with caspase inhibitors; type: cell-based, human; conditions: two healthy controls, through four days of culture (FIG. 5D)
Method: as §2
as §3, with “Cells were fixed using 2% paraformaldehyde in PBS after preliminary experiments indicated no effect of cell fixation on expression levels of PD-L1 and other surface markers. To assess apoptosis, some cultures were stained in parallel with Annexin V and propidium iodide (PI) (both from Becton Dickinson) as per the manufacturer's instructions.” left out

[7] = tested on: leukocytes; conditions: cited from earlier work
[8] = tested on: human macrophages; conditions: cited from earlier work

## Sc1ncnc2nc[nH]c12 [6-mercaptopurine]
[1]
  effect on markers of Mo differentiation and maturation: no significant effect

## CC(C)[C@H](NC(=O)c1ccc2ccccc2n1)C(=O)N[C@@H](CC(=O)O)C(=O)COc1c(F)cccc1F [OPH, Q- Val-Asp-(non-o-methylated)—OPh]
[2]; 50 uM, day one
  PD-L1 expression on the surface of both Mo and mDC: increased
[2]; 50 uM, controls, SLE flare, SLE remission (FIG. 4C)
  PD-L1 expression in Mo compared to untreated: significantly increases
[2]; CD80/86+ APC, one day (FIG. 7)
  PD-L1 on APC from healthy controls: upregulated PD-L 1 further; also recorded: increased
[2]; FIG. 5A
  PD-L1 on PBMC: increases
  number of CD14int among PD-L1+ PBMC: increases
[2]; SLE flare, 50 uM, untreated 45%
  mean percentage of Mo expressing PD-L1: 97%
[2]; all three groups, 50 uM, P<0.013
  mean percentage of mDC expressing PD-L1: more than doubled
[2]; all three groups, 50 uM, p<0.02
  increase of PD-L1 expression in immature mDC: two- to three-fold
[2]; one day (FIG. 7)
  PD-L1 levels in SLE flare APC: approached those of untreated control cells; also recorded: restored normal levels
[3]
  other APC surface markers: does not increase
[4]
  level of Foxp3 expression (Foxp3 MFI and number of CD4+ cells expressing Foxp3): remained unchanged
[5]
  apoptosis in PBMC: reduces
[6]
  PD-L2 expression: not increased

## COC(=O)CC[C@H](NC(=O)[C@H](CC(=O)OC)NC(=O)OCc1ccccc1)C(=O)N[C@H](C(=O)N[C@@H](CC(=O)OC)C(=O)CF)C(C)C [Z-DEVD-fmk]
[2]; normal PBMC, control mDC, day one (FIG. 11)
  PD-L1 levels: greatly increased

## COC(=O)C[C@H](NC(=O)[C@H](C)NC(=O)[C@@H](NC(=O)OCc1ccccc1)C(C)C)C(=O)CF [Z-VAD, Z- Val-Ala-Asp-(beta-o-methyl)-fluroromethylketone] (Cbz-Val-Ala-Asp(OMe)-CH2F)
[2]; all PBMC treated
  reciprocal relationship between caspase activity and Mo PD-L1 expression: held true
[6]
  PD-L2 expression: not increased

## CCN(CC)CCCC(C)Nc1ccnc2cc(Cl)ccc12 (stereo not drawn) [chloroquine]
[1]
  effect on markers of Mo differentiation and maturation: no significant effect

## CN(C)CCCN1c2ccccc2Sc2ccc(Cl)cc21 [chlorpromazine]
[7]
  caspase activation and apoptosis in leukocytes: activate caspases and trigger apoptosis

## COc1c(C)c2c(c(O)c1C/C=C(\C)CCC(=O)OCCN1CCOCC1)C(=O)OC2 [mycophenolate mofetil]
[1]
  effect on markers of Mo differentiation and maturation: no significant effect

## Infliximab: can cause a lupus-like syndrome in susceptible individuals
[8]
  caspase activation and apoptosis in human macrophages: promote caspase activation and apoptosis
